Earlier results on one compound are cited in patent US20200306252A1, “COMPOSITION FOR PREVENTING AND/OR TREATING DEMENTIA” (priority 2019, published 2020).

One data set has as its system neural cells. The conditions noted are these: cellular experiments.
For the next data set, the system named is β-amyloid. The conditions noted are these: cellular experiments.
In a further data set the test system is patients with dementia. The note with it: clinical experiments; curcumin alone.

With `COc1cc(/C=C/C(=O)CC(=O)/C=C/c2ccc(O)c(OC)c2)ccc1O` [curcumin], the bioavailability result is “poor”. For the same compound, the protecting neural cells entry in the data set on neural cells is recorded as “effective”. In addition, in the data set with β-amyloid, the “reducing β-amyloid aggregation” value is on record as “effective”. Moreover, the “alleviation of the symptoms of patients with dementia” value with patients with dementia is on record as “cannot effectively alleviate the symptoms”.
